# Test results reported in article PMC12203311, “Design, synthesis, in silico and in vitro evaluation of pyrrole–indole hybrids as dual tubulin and aromatase inhibitors with potent anticancer activities” (RSC Advances, 2025).
# Where two headings read alike, the source gives them in different places.
# Key:
# CCRF-CEM = experiment: NCI60 five-dose screen; assay type: cell-based; conditions: Homo sapiens, leukemia; for CC50: read-out: LC50 (the source's name)
# HL-60 (TB) = experiment: NCI60 five-dose screen; assay type: cell-based; conditions: Homo sapiens, leukemia; for CC50: read-out: LC50 (the source's name)
# K-562 = experiment: NCI60 five-dose screen; assay type: cell-based; conditions: Homo sapiens, K562, K-562, leukemia; for CC50: read-out: LC50 (the source's name)
# RPMI-8226 = experiment: NCI60 five-dose screen; assay type: cell-based; conditions: Homo sapiens, RPMI-8226, leukemia; for CC50: read-out: LC50 (the source's name)
# NCI-H23 = experiment: NCI60 five-dose screen; assay type: cell-based; conditions: Homo sapiens, NCI-H23, NSC lung cancer; for CC50: read-out: LC50 (the source's name)
# HCC-2998 = experiment: NCI60 five-dose screen; assay type: cell-based; conditions: Homo sapiens, HCC-2998, colon cancer; for CC50: read-out: LC50 (the source's name)
# HCT-116 = experiment: NCI60 five-dose screen; assay type: cell-based; conditions: Homo sapiens, HCT-116, colon cancer; for CC50: read-out: LC50 (the source's name)
# KM12 = experiment: NCI60 five-dose screen; assay type: cell-based; conditions: Homo sapiens, KM12, colon cancer; for CC50: read-out: LC50 (the source's name)
# SW-620 = experiment: NCI60 five-dose screen; assay type: cell-based; conditions: Homo sapiens, SW-620, colon cancer; for CC50: read-out: LC50 (the source's name)
# SF-539 = experiment: NCI60 five-dose screen; assay type: cell-based; conditions: Homo sapiens, SF-539, CNS cancer; for CC50: read-out: LC50 (the source's name)
# SNB-75 = experiment: NCI60 five-dose screen; assay type: cell-based; conditions: Homo sapiens, SNB-75, CNS cancer; for CC50: read-out: LC50 (the source's name)
# U251 = experiment: NCI60 five-dose screen; assay type: cell-based; conditions: Homo sapiens, U-251, U251, CNS cancer; for CC50: read-out: LC50 (the source's name)
# MALME-3M = experiment: NCI60 five-dose screen; assay type: cell-based; conditions: Homo sapiens, melanoma; for CC50: read-out: LC50 (the source's name)
# MDA-MB-435 = experiment: NCI60 five-dose screen; assay type: cell-based, human; conditions: Homo sapiens; for GI50: MDA-MB-435, melanoma
# SK-MEL-2 = experiment: NCI60 five-dose screen; assay type: cell-based; conditions: Homo sapiens, SK-MEL-2, melanoma; for CC50: read-out: LC50 (the source's name)
# SK-MEL-28 = experiment: NCI60 five-dose screen; assay type: cell-based; conditions: Homo sapiens, SK-MEL-28, melanoma; for CC50: read-out: LC50 (the source's name)
# SK-MEL-5 = experiment: NCI60 five-dose screen; assay type: cell-based, human; conditions: for CC50: read-out: LC50 (the source's name)
# UACC-62 = experiment: NCI60 five-dose screen; assay type: cell-based; conditions: Homo sapiens, UACC-62, melanoma; for CC50: read-out: LC50 (the source's name)
# IGROV1 = experiment: NCI60 five-dose screen; assay type: cell-based; conditions: Homo sapiens, IGROV-1; IGROV1, ovarian cancer
# OVCAR-3 = experiment: NCI60 five-dose screen; assay type: cell-based; conditions: Homo sapiens, OVCAR-3, ovarian cancer; for CC50: read-out: LC50 (the source's name)
# OVCAR-5 = experiment: NCI60 five-dose screen; assay type: cell-based; conditions: Homo sapiens, OVCAR-5, ovarian cancer; for CC50: read-out: LC50 (the source's name)
# SK-OV-3 = experiment: NCI60 five-dose screen; assay type: cell-based; conditions: Homo sapiens, SK-OV-3, ovarian cancer; for CC50: read-out: LC50 (the source's name)
# A498 = experiment: NCI60 five-dose screen; assay type: cell-based; conditions: Homo sapiens, A498, renal cancer; for CC50: read-out: LC50 (the source's name)
# RXF 393 = experiment: NCI60 five-dose screen; assay type: cell-based; conditions: Homo sapiens, RXF 393, renal cancer; for CC50: read-out: LC50 (the source's name)
# TK-10 = experiment: NCI60 five-dose screen; assay type: cell-based; conditions: Homo sapiens, TK-10, renal cancer; for CC50: read-out: LC50 (the source's name)
# UO-31 = experiment: NCI60 five-dose screen; assay type: cell-based; conditions: Homo sapiens, UO-31, renal cancer; for CC50: read-out: LC50 (the source's name)
# MCF7 = experiment: NCI60 five-dose screen; assay type: cell-based; conditions: Homo sapiens; for CC50: read-out: LC50 (the source's name)
# MDA-MB-231/ATCC = experiment: NCI60 five-dose screen; assay type: cell-based; conditions: Homo sapiens, breast cancer; for CC50: read-out: LC50 (the source's name)
# HS 578T = experiment: NCI60 five-dose screen; assay type: cell-based; conditions: Homo sapiens, breast cancer; for CC50: read-out: LC50 (the source's name)
# T-47D = experiment: NCI60 five-dose screen; assay type: cell-based; conditions: Homo sapiens, T47D, breast cancer; for CC50: read-out: LC50 (the source's name)
# [1] = system: T47D breast cancer cell line; experiment: Cytotoxicity MTT assay, T47D; assay type: cell-based, human; conditions: Homo sapiens, T47D; MTT, 48 hours
# Outline: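 Both lines were handled identically: 10 000 cells per well, overnight growth, 48 h with compound at the chosen concentrations, then 0.5 mg mL^−1 MTT for 3 h. Dissolved formazan was quantified at 570 nm against vehicle-treated wells.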
# [2] = Homo sapiens, SK-MEL-5, SK-MEL-5, melanoma
# [3] = Homo sapiens, SK-MEL-5, melanoma
compound,measurement,setting,value
"Cc1cc(C)c(/C=N/NC(=O)c2[nH]c3ccc(Br)cc3c2-c2ccccc2)[nH]1 [Derivative 3c, (E)-5-Bromo-N′-((3,5-dimethyl-1H-pyrrol-2-yl)methylene)-3-phenyl-1H-2-carbohydrazide]",GI50,CCRF-CEM,3.07 µM
same,CC50,CCRF-CEM,> 100 µM
same,GI50,HL-60 (TB),2.4 µM
same,CC50,HL-60 (TB),> 100 µM
same,GI50,K-562,2.43 µM
same,CC50,K-562,> 100 µM
same,GI50,RPMI-8226,2.43 µM
same,CC50,RPMI-8226,> 100 µM
same,GI50,NCI-H23,2.59 µM
same,CC50,NCI-H23,35.2 µM
same,GI50,HCC-2998,3.55 µM
same,CC50,HCC-2998,37.2 µM
same,GI50,HCT-116,4.02 µM
same,CC50,HCT-116,> 100 µM
same,GI50,KM12,2.96 µM
same,CC50,KM12,35.4 µM
same,GI50,SW-620,3.06 µM
same,CC50,SW-620,42 µM
same,GI50,SF-539,2.93 µM
same,CC50,SF-539,32.4 µM
same,GI50,SNB-75,2.68 µM
same,CC50,SNB-75,43.9 µM
same,GI50,U251,3.21 µM
same,CC50,U251,35.7 µM
same,GI50,MALME-3M,3.16 µM
same,CC50,MALME-3M,38.5 µM
same,CC50,"MDA-MB-435; MDA-MB-435, MDA-MB-435, melanoma, read-out: LC50 (the source's name)",34 µM
same,GI50,MDA-MB-435,2.84 µM
same,GI50,SK-MEL-2,3.37 µM
same,CC50,SK-MEL-2,41.7 µM
same,GI50,SK-MEL-28,3.81 µM
same,CC50,SK-MEL-28,38.8 µM
same,CC50,SK-MEL-5; [2],19.3 µM
same,GI50,SK-MEL-5; [3],2.52 µM
same,CC50,"SK-MEL-5; SK-MEL-5, melanoma",28.8 µM
same,GI50,UACC-62,2.36 µM
same,CC50,UACC-62,32.4 µM
same,GI50,IGROV1,2.47 µM
same,GI50,OVCAR-3,2.53 µM
same,CC50,OVCAR-3,36.4 µM
same,GI50,OVCAR-5,3.63 µM
same,CC50,OVCAR-5,37.6 µM
same,GI50,SK-OV-3,6.81 µM
same,CC50,SK-OV-3,70.8 µM
same,GI50,A498,8.25 µM
same,CC50,A498,46.9 µM
same,GI50,RXF 393,2.26 µM
same,CC50,RXF 393,35 µM
same,GI50,TK-10,7.32 µM
same,CC50,TK-10,45.2 µM
same,GI50,UO-31,1.77 µM
same,CC50,UO-31,33.8 µM
same,GI50,"MCF7; MCF7, breast cancer",2.3 µM
same,CC50,"MCF7; MCF7, breast cancer",37.2 µM
same,GI50,MDA-MB-231/ATCC,2.78 µM
same,CC50,MDA-MB-231/ATCC,32.8 µM
same,GI50,HS 578T,2.31 µM
same,CC50,HS 578T,> 100 µM
same,GI50,T-47D,4.68 µM
same,CC50,T-47D,77.6 µM
same,IC50,[1],11.6 ± 0.3 µM
"Cn1cccc1/C=N/NC(=O)c1[nH]c2ccc(Br)cc2c1-c1ccccc1 [Derivative 3d, (E)-5-Bromo-N′-((1-methyl-1H-pyrrol-2-yl)methylene)-3-phenyl-1H-indole-2-carbohydrazide]",GI50,CCRF-CEM,0.429 µM
same,CC50,CCRF-CEM,> 100 µM
same,GI50,HL-60 (TB),0.317 µM
same,CC50,HL-60 (TB),> 100 µM
same,GI50,K-562,0.327 µM
same,CC50,K-562,> 100 µM
same,GI50,RPMI-8226,0.61 µM
same,CC50,RPMI-8226,> 100 µM
same,GI50,NCI-H23,0.447 µM
same,CC50,NCI-H23,> 100 µM
same,GI50,HCC-2998,0.402 µM
same,CC50,HCC-2998,> 100 µM
same,GI50,HCT-116,0.427 µM
same,CC50,HCT-116,> 100 µM
same,GI50,KM12,0.357 µM
same,CC50,KM12,> 100 µM
same,GI50,SW-620,0.432 µM
same,CC50,SW-620,> 100 µM
same,GI50,SF-539,0.217 µM
same,CC50,SF-539,> 100 µM
same,GI50,SNB-75,0.259 µM
same,CC50,SNB-75,> 100 µM
same,GI50,U251,0.477 µM
same,CC50,U251,> 100 µM
same,GI50,MALME-3M,0.409 µM
same,CC50,MALME-3M,> 100 µM
same,GI50,MDA-MB-435,0.151 µM
same,GI50,SK-MEL-2,0.366 µM
same,CC50,SK-MEL-2,> 100 µM
same,GI50,SK-MEL-28,4.7 µM
same,CC50,SK-MEL-28,> 100 µM
same,CC50,SK-MEL-5; [2],> 100 µM
same,GI50,SK-MEL-5; [3],0.196 µM
same,GI50,UACC-62,0.283 µM
same,CC50,UACC-62,> 100 µM
same,GI50,IGROV1,0.621 µM
same,GI50,OVCAR-3,0.246 µM
same,CC50,OVCAR-3,> 100 µM
same,GI50,OVCAR-5,0.472 µM
same,CC50,OVCAR-5,> 100 µM
same,GI50,SK-OV-3,1.61 µM
same,CC50,SK-OV-3,> 100 µM
same,GI50,A498,> 100 µM
same,CC50,A498,> 100 µM
same,GI50,RXF 393,0.28 µM
same,CC50,RXF 393,> 100 µM
same,GI50,TK-10,1.01 µM
same,CC50,TK-10,> 100 µM
same,GI50,UO-31,0.33 µM
same,CC50,UO-31,> 100 µM
same,GI50,"MCF7; MCF7, MCF-7 breast cancer cells",0.072 µM
same,CC50,"MCF7; MCF7, breast cancer",> 100 µM
same,GI50,MDA-MB-231/ATCC,0.237 µM
same,CC50,MDA-MB-231/ATCC,> 100 µM
same,GI50,HS 578T,0.22 µM
same,CC50,HS 578T,> 100 µM
same,GI50,T-47D,0.344 µM
same,CC50,T-47D,> 100 µM
same,IC50,[1],1 ± 0.4 µM
